SMILES strings stand for the structures. The source made the active and inactive calls.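 How the source made its calls: active means fitted curve reaching 40% activation at or below the top valid dose tested; inconclusive means flat curve at 30 to 70% activation, or poor fit; inactive means the rest.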

The nature of this assay: activation of TRPM1 promoter luciferase in melanoma cells – SK-MEL-5 cells, cherry-pick samples, dose response (AID 540258). To be noted: SK-MEL-5 TRPM1 promoter luciferase reporter, 24 h; at 35 µM (top of the series); 100% = twice the neutral-control signal.
As to `COc1cccc(/C=N/Nc2c(Cl)cncc2Cl)c1O`, the activation is 25.5% (inactive).
Turning to `COc1ccc(-c2cc(=O)c3cc(C)ccc3[nH]2)cc1`, the activation is -4.97% (inactive).
Under `CC(C)NC(=O)c1ccc2c3n(nc2c1)-c1ccc(Cl)cc1CO3` stands -2.69% (inactive); under `O=c1[nH]c(COc2ccccc2)nc2ccccc12`, 24.6% (inactive).
Under `CCN(CC)S(=O)(=O)c1cccc(C(=O)N/N=C(\C)c2cccs2)c1` stands 23.7% (inactive); under `CCN(CC)S(=O)(=O)c1cc(C(=O)Nc2cc(C)[nH]n2)ccc1Cl`, 32.8% (inactive).

The values above are taken from PubChem BioAssay AID540258 (Broad Institute, 2011).
